Data as given in ChEMBL document CHEMBL3045243, “Synthesis of novel 3-chloro-1-(5H-dibenz[b,f]azepine-5yl)propan-1-one derivatives with antioxidant activity” (Med Chem Res, 2011).

What was measured:
Format in all cases: functional
[1] = Antioxidant activity assessed as inhibition of CuSO4-induced human LDL oxidation at 25 uM at 4 hr by thibarbuteric acid assay
[2] = Antioxidant activity assessed as inhibition of linoleic acid oxidation at 10 uM up to 180 min by beta-carotene bleaching assay
[3] = Antioxidant activity assessed as inhibition of CuSO4-induced human LDL oxidation at 25 uM at 2 hr by thibarbuteric acid assay
[4] = Antioxidant activity assessed as inhibition of CuSO4-induced human LDL oxidation at 25 uM at 6 hr by thibarbuteric acid assay
[5] = Antioxidant activity assessed as inhibition of CuSO4-induced human LDL oxidation at 10 uM at 4 hr by thibarbuteric acid assay
[6] = Antioxidant activity assessed as inhibition of CuSO4-induced human LDL oxidation at 10 uM at 2 hr by thibarbuteric acid assay
[7] = Antioxidant activity assessed as inhibition of CuSO4-induced human LDL oxidation at 10 uM at 6 hr by thibarbuteric acid assay
[8] = Antioxidant activity assessed as inhibition of linoleic acid oxidation at 25 uM up to 180 min by beta-carotene bleaching assay

O=C1O[C@H]([C@@H](O)CO)C(O)=C1O
inhibition [1]: 85.2%
inhibition [2]: 87.2%
inhibition [3]: 79.2%
inhibition [4]: 92.2%
inhibition [5]: 81.3%
inhibition [6]: 74.3%
inhibition [7]: 84.4%
inhibition [8]: 90.4%

O=C(O)CNCCC(=O)N1c2ccccc2C=Cc2ccccc21
inhibition [1]: 7.92%
inhibition [2]: 2.96%
inhibition [3]: 8.24%
inhibition [4]: 10.3%
inhibition [5]: 7.95%
inhibition [6]: 6.71%
inhibition [7]: 10.2%
inhibition [8]: 8.8%

O=C(O)[C@H](Cc1c[nH]cn1)NCCC(=O)N1c2ccccc2C=Cc2ccccc21
inhibition [1]: 70.1%
inhibition [2]: 85%
inhibition [3]: 68.3%
inhibition [4]: 72.7%
inhibition [5]: 65.7%
inhibition [6]: 56.3%
inhibition [7]: 68.5%
inhibition [8]: 86.8%

O=C(CCCl)N1c2ccccc2C=Cc2ccccc21
inhibition [1]: 9.77%
inhibition [2]: 2.89%
inhibition [3]: 7.43%
inhibition [4]: 12.4%
inhibition [5]: 6.87%
inhibition [6]: 5.34%
inhibition [7]: 8.87%
inhibition [8]: 4.24%

C[C@@H](O)[C@H](NCCC(=O)N1c2ccccc2C=Cc2ccccc21)C(=O)O
inhibition [1]: 59.6%
inhibition [2]: 53.8%
inhibition [3]: 56.2%
inhibition [4]: 61.6%
inhibition [5]: 55.5%
inhibition [6]: 53.5%
inhibition [7]: 57%
inhibition [8]: 76%

O=C(O)[C@H](Cc1ccc(O)cc1)NCCC(=O)N1c2ccccc2C=Cc2ccccc21
inhibition [1]: 79.6%
inhibition [2]: 86.8%
inhibition [3]: 73.6%
inhibition [4]: 83.5%
inhibition [5]: 75.5%
inhibition [6]: 70.5%
inhibition [7]: 78.7%
inhibition [8]: 89.1%

CSCC[C@H](NCCC(=O)N1c2ccccc2C=Cc2ccccc21)C(=O)O
inhibition [1]: 59.8%
inhibition [2]: 52.6%
inhibition [3]: 55%
inhibition [4]: 61.6%
inhibition [5]: 57.9%
inhibition [6]: 54.6%
inhibition [7]: 59.7%
inhibition [8]: 67.3%

O=C(O)[C@@H]1C(O)CCN1CCC(=O)N1c2ccccc2C=Cc2ccccc21 (some centres undefined)
inhibition [1]: 75.5%
inhibition [2]: 85.4%
inhibition [3]: 73.7%
inhibition [4]: 77.1%
inhibition [5]: 73.5%
inhibition [6]: 69.7%
inhibition [7]: 75.8%
inhibition [8]: 88.4%

O=C(O)[C@@H]1CCCN1CCC(=O)N1c2ccccc2C=Cc2ccccc21
inhibition [1]: 14.1%
inhibition [2]: 4.22%
inhibition [3]: 13.7%
inhibition [4]: 17.4%
inhibition [5]: 13.6%
inhibition [6]: 11.9%
inhibition [7]: 15.4%
inhibition [8]: 6.15%

O=C(O)[C@H](Cc1ccccc1)NCCC(=O)N1c2ccccc2C=Cc2ccccc21
inhibition [1]: 16.4%
inhibition [2]: 5.39%
inhibition [3]: 13.1%
inhibition [4]: 18.7%
inhibition [5]: 11.2%
inhibition [6]: 9.98%
inhibition [7]: 13.5%
inhibition [8]: 8.3%

O=C(O)[C@H](Cc1c[nH]c2ccccc12)NCCC(=O)N1c2ccccc2C=Cc2ccccc21
inhibition [1]: 73.2%
inhibition [2]: 83.6%
inhibition [3]: 71.2%
inhibition [4]: 75.2%
inhibition [5]: 70.8%
inhibition [6]: 67.9%
inhibition [7]: 73.5%
inhibition [8]: 85.9%

C[C@H](NCCC(=O)N1c2ccccc2C=Cc2ccccc21)C(=O)O
inhibition [1]: 10.1%
inhibition [2]: 10%
inhibition [3]: 9.14%
inhibition [4]: 12.1%
inhibition [5]: 9.75%
inhibition [6]: 8.92%
inhibition [7]: 11%
inhibition [8]: 15.4%

O=C(O)[C@H](CS)NCCC(=O)N1c2ccccc2C=Cc2ccccc21
inhibition [1]: 73.4%
inhibition [2]: 82.2%
inhibition [3]: 70.5%
inhibition [4]: 75.8%
inhibition [5]: 69.8%
inhibition [6]: 67.3%
inhibition [7]: 72.5%
inhibition [8]: 84.4%
